Assay results: the supplement of paper PMC10307832

Key:
Test in all cases: relative viability (nuclei count vs DMSO), 5 days (fraction); higher = more cells survive
Bosutinib + AZD7762 = compound: COc1cc(Nc2c(C#N)cnc3cc(OCCCN4CCN(C)CC4)c(OC)cc23)c(Cl)cc1Cl [Bosutinib] + NC(=O)Nc1cc(-c2cccc(F)c2)sc1C(=O)N[C@H]1CCCNC1 [AZD7762] (partner 0.2 µM)
In short: (§1)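 Lung cancer cell lines in 1536-well plates were dosed by pin tool the day after seeding, either with one drug alone or with a fixed anchor-drug dose plus five library-drug doses (not always all listed) in √10 steps. After 5 days, cells were fixed and their nuclei stained in one step (final 0.05% Triton X-100, 1% formaldehyde, 1 ug/ml Hoechst), then counted on 4× images. Relative viability is the nuclei count in treated wells divided by that in vehicle wells. Values are medians of duplicate plates.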

Bosutinib + Crizotinib = compound: COc1cc(Nc2c(C#N)cnc3cc(OCCCN4CCN(C)CC4)c(OC)cc23)c(Cl)cc1Cl [Bosutinib] + C[C@@H](Oc1cc(-c2cnn(C3CCNCC3)c2)cnc1N)c1c(Cl)ccc(F)c1Cl [Crizotinib] (partner 1 µM)
In short: as §1

Bosutinib + Pictilisib = compound: COc1cc(Nc2c(C#N)cnc3cc(OCCCN4CCN(C)CC4)c(OC)cc23)c(Cl)cc1Cl [Bosutinib] + CS(=O)(=O)N1CCN(Cc2cc3nc(-c4cccc5[nH]ncc45)nc(N4CCOCC4)c3s2)CC1 [Pictilisib] (partner 1 µM)
In short: as §1

Bosutinib + Trametinib = compound: COc1cc(Nc2c(C#N)cnc3cc(OCCCN4CCN(C)CC4)c(OC)cc23)c(Cl)cc1Cl [Bosutinib] + CC(=O)Nc1cccc(-n2c(=O)n(C3CC3)c(=O)c3c(Nc4ccc(I)cc4F)n(C)c(=O)c(C)c32)c1 [Trametinib] (partner 0.02 µM)
In short: as §1

Bosutinib + Olaparib = compound: COc1cc(Nc2c(C#N)cnc3cc(OCCCN4CCN(C)CC4)c(OC)cc23)c(Cl)cc1Cl [Bosutinib] + O=C(c1cc(Cc2n[nH]c(=O)c3ccccc23)ccc1F)N1CCN(C(=O)C2CC2)CC1 [Olaparib] (partner 8 µM)
In short: as §1

Cell Line	relative viability (Bosutinib + AZD7762; first compound 0.01 µM)	relative viability (Bosutinib + AZD7762; first compound 0.03162 µM)	relative viability (Bosutinib + AZD7762; first compound 0.1 µM)	relative viability (Bosutinib + AZD7762; first compound 1 µM)	relative viability (Bosutinib + Crizotinib; first compound 0.01 µM)	relative viability (Bosutinib + Crizotinib; first compound 0.03162 µM)	relative viability (Bosutinib + Crizotinib; first compound 0.1 µM)	relative viability (Bosutinib + Crizotinib; first compound 1 µM)	relative viability (Bosutinib + Pictilisib; first compound 0.01 µM)	relative viability (Bosutinib + Pictilisib; first compound 0.03162 µM)	relative viability (Bosutinib + Pictilisib; first compound 0.1 µM)	relative viability (Bosutinib + Pictilisib; first compound 1 µM)	relative viability (Bosutinib + Trametinib; first compound 0.01 µM)	relative viability (Bosutinib + Trametinib; first compound 0.03162 µM)	relative viability (Bosutinib + Trametinib; first compound 0.1 µM)	relative viability (Bosutinib + Trametinib; first compound 1 µM)	relative viability (Bosutinib + Olaparib; first compound 0.01 µM)	relative viability (Bosutinib + Olaparib; first compound 0.03162 µM)	relative viability (Bosutinib + Olaparib; first compound 0.1 µM)	relative viability (Bosutinib + Olaparib; first compound 1 µM)
EMC-BAC-2	1.18	1.11	1.13	1.09	0.763	0.756	0.789	0.759	0.576	0.507	0.52	0.506	0.848	0.887	0.857	0.773	0.48	0.525	0.51	0.621
NCI-H661						1.06	0.989	0.633	0.351	0.53	0.386	0.327	0.616	0.554	0.565	0.439	0.696	0.736	0.743	0.649
LU99A	0.376	0.362	0.354	0.287	0.527	0.561	0.563	0.647	0.324	0.321	0.375	0.345	0.53	0.623	0.645	0.517	0.234	0.291	0.284	0.245
LK-2	0.387	0.417	0.461	0.2	0.258	0.227	0.248	0.224	0.645	0.603	0.577	0.378	0.873	0.784	0.667	0.672	0.538	0.962	0.807	0.707
NCI-H3122	1.01	0.884	0.947	0.975	0.287	0.282	0.328	0.322	0.623	0.609	0.624	0.761	0.203	0.273	0.205	0.256	0.678	0.653	0.658	0.559
NCI-H2347	0.748	0.725	0.777	0.487	0.835	0.877	0.914	0.648	0.648	0.575	0.697	0.383	0.309	0.27	0.297	0.307	0.491	0.609	0.545	0.539
NCI-H1563					0.896	0.753	0.753	0.658	0.611	0.607	0.613	0.526								
HCC-827	0.219	0.21	0.189	0.168	0.874	0.943	0.91	0.605	0.971	0.763	1.12	0.749	0.55	0.6	0.594	0.18	0.609	0.817	0.626	0.217
NCI-H1666	0.719	0.836	0.832	0.788	1.2	0.987	0.916	0.912	0.469	0.32	0.417	0.405	0.888	0.774	0.832	0.842	0.713	0.701	0.756	0.794
NCI-H358	0.638	0.547	0.556	0.359	0.516	0.512	0.505	0.647	0.407	0.368	0.363	0.379	0.132	0.128	0.121	0.109	0.566	0.579	0.572	0.366
201T	0.581	0.654	0.603	0.62	0.982	1.06	1.1	0.945	0.685	0.653	0.66	0.615	0.745	0.696	0.682	0.708	0.829	0.884	0.888	0.76
PC-3 [JPC-3]	0.787	0.738	0.689	0.641	0.899	0.939	0.978	0.942	0.756	0.726	0.73	0.59	0.725	0.691	0.647	0.467	1.08	1.09	1.06	0.663
NCI-H2405	0.873	0.739	0.701	0.598	0.945	0.855	0.891	0.576	0.481	0.449	0.435	0.311	0.659	0.653	0.605	0.396	0.978	0.887	0.902	0.691
LXF-289	1.17	1.14	1.14	1.02	0.829	0.823	0.79	0.898	0.815	0.865	0.818	0.778	0.654	0.721	0.679	0.751	1.05	1.12	0.972	1.24
EKVX	0.441	0.751	0.735	0.656	0.895	0.753	1.01	0.481	0.427	0.469	0.41	0.309	0.306	0.334	0.364	0.228	0.925	0.86	0.876	0.628
A-427	0.777	0.691	0.661	0.643	0.867	0.954	0.877	0.61	0.724	0.801	0.874	0.736	0.832	0.822	0.783	0.681	0.73	0.764	0.742	0.68
IA-LM					0.733	0.777	0.839	0.688		0.365	0.317	0.359					0.964	0.927	0.858	0.77
ChaGo-K-1	0.919	0.89	0.923	0.852	1.21	1.14	1.09	1.17	0.544	1.05	1.06	1.14	0.91	0.89	0.891	0.875	0.432	0.458	0.401	0.435

Cell Line	relative viability (Bosutinib + AZD7762; first compound 0.01 µM)	relative viability (Bosutinib + AZD7762; first compound 0.03162 µM)	relative viability (Bosutinib + AZD7762; first compound 0.1 µM)	relative viability (Bosutinib + AZD7762; first compound 1 µM)	relative viability (Bosutinib + Crizotinib; first compound 0.01 µM)	relative viability (Bosutinib + Crizotinib; first compound 0.03162 µM)	relative viability (Bosutinib + Crizotinib; first compound 0.1 µM)	relative viability (Bosutinib + Crizotinib; first compound 1 µM)	relative viability (Bosutinib + Pictilisib; first compound 0.01 µM)	relative viability (Bosutinib + Pictilisib; first compound 0.03162 µM)	relative viability (Bosutinib + Pictilisib; first compound 0.1 µM)	relative viability (Bosutinib + Pictilisib; first compound 1 µM)	relative viability (Bosutinib + Trametinib; first compound 0.01 µM)	relative viability (Bosutinib + Trametinib; first compound 0.03162 µM)	relative viability (Bosutinib + Trametinib; first compound 0.1 µM)	relative viability (Bosutinib + Trametinib; first compound 1 µM)	relative viability (Bosutinib + Olaparib; first compound 0.01 µM)	relative viability (Bosutinib + Olaparib; first compound 0.03162 µM)	relative viability (Bosutinib + Olaparib; first compound 0.1 µM)	relative viability (Bosutinib + Olaparib; first compound 1 µM)
NCI-H2342	0.445	0.553	0.459	0.55									0.706	0.703	0.856	1.1	0.419	0.379	0.464	0.432
SK-MES-1					0.954	1.03	0.997	0.96	0.374	0.351	0.437	0.305	0.55	0.547	0.547	0.39	0.671	0.896	0.798	0.458
ABC-1		0.873	0.915	0.677	1.01	1.04	1.21	0.708	0.836	0.85	0.841	0.596					0.531	0.964	0.743	0.46
COR-L 105					0.938	0.798	0.617	0.507	0.423	0.442	0.387	0.393	0.51	0.381	0.42	0.389	0.677	0.743	0.844	0.603
NCI-H2009					1.05	1.07	1.03	0.66	0.997	0.866	0.927	0.557	0.276	0.344	0.27	0.166	0.708	0.709	0.696	0.575
NCI-H1703	0.12	0.132	0.124	0.133	0.769	0.667	0.493	0.319	0.246	0.235	0.242	0.228					0.371	0.471	0.311	0.26
NCI-H2023					0.538	0.613	0.511	0.366	0.25	0.235	0.272	0.233	0.647	0.474	0.537	0.434	0.493	0.427	0.461	0.423
NCI-H1650					0.921	0.989	0.908	0.496	0.587	0.516	0.524	0.49	0.532	0.584	0.6	0.312	0.705	0.717	0.632	0.565
NCI-H1395	0.405	0.425	0.387	0.38					0.597	0.758	0.818	0.719	0.992	0.993	1.02	0.928	0.456	0.511	0.468	0.487
NCI-H1793	0.497	0.39	0.366	0.175					0.394	0.321	0.383	0.292	0.383	0.394	0.454	0.298	0.815	0.804	0.755	0.539
NCI-H522	0.794	0.714	0.698	0.897									0.723	0.711	0.689	0.723	0.616	0.645	0.735	0.619
NCI-H520					0.806	0.74	0.635	0.676	0.309	0.279	0.288	0.281	0.703	0.633	0.6	0.417	0.358	0.379	0.352	0.298
UMC-11					0.597	0.622	0.555	0.579	0.889	0.81	0.875	0.764	0.724	0.723	0.686	0.678	0.64	0.672	0.248	0.686
SK-LU-1					0.9	0.819	0.807	0.48	0.574	0.685	0.517	0.545	0.43	0.504	0.498	0.344	0.474	0.686	0.5	0.383
SW 1573					0.655	0.813	0.917	0.782	0.508	0.516	0.492	0.432	0.571	0.614	0.652	0.504	0.533	0.457	0.528	0.484
SW 900	0.624	0.589	0.581	0.482									0.809	0.674	0.784	0.61	0.824	0.769	0.766	0.538
NCI-H2228					0.472		0.402	0.333	0.451		0.229	0.297	0.54	0.599	0.494	0.355	0.654	0.671	0.468	0.735
COR-L23					0.663	0.589	0.571	0.749	0.893	0.826	0.813	0.81	0.706	0.548	0.568	0.541	0.341	0.353	0.348	0.309
